For the experiment, the target named is T1, X-RdRp protein (HEV ORF1 X to RdRp domains, forming the 'pocket-like' cavity, PC) (Hepatitis E virus US2, UniProt Q9YLR1).
T1 construct: X-RdRp fragment of ORF1 polyprotein (X 850-998, Hel 1002-1279, RdRp 1298-1765)
T1 sequence (Q9YLR1 793-1708): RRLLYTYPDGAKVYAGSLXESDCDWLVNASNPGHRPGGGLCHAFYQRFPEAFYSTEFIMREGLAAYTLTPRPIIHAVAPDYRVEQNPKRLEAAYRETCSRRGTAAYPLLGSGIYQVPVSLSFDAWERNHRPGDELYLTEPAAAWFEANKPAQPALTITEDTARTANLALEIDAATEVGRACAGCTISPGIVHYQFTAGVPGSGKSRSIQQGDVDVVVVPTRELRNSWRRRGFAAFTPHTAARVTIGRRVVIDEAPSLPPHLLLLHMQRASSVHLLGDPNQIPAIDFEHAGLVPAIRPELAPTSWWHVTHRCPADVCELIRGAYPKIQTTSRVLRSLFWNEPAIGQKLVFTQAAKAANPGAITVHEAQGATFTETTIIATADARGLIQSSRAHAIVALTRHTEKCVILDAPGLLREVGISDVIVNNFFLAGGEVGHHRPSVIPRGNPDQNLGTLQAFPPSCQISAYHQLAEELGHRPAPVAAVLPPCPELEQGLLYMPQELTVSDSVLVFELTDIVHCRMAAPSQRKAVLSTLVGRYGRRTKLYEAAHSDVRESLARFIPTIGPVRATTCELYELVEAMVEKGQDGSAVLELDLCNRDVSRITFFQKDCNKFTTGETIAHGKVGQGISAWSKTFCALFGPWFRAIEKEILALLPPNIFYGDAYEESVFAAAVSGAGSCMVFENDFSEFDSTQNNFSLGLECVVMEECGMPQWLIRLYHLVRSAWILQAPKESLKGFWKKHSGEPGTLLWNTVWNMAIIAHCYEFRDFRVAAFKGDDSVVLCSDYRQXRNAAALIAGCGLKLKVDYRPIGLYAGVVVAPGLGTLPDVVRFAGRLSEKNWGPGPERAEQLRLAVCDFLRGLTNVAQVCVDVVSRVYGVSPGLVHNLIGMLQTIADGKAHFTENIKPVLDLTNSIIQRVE
The experiment is described as follows: SPR, Biacore 8K, CM5 chip, protein immobilised by amine coupling, […] Langmuir fit. It counts as binding. Conditions: protein refolded from inclusion bodies; site (X/RdRp pocket-like cavity) assigned by docking. In general terms: Surface plasmon resonance follows binding to a sensor surface in real time, without labels.

Data on one molecule can be found in paper PMC12713093, “Hepatitis E Virus ORF1 Polyprotein Harbors a Pocket‐Like Cavity That Is Vital for Virus Replication and Represents a Novel Antiviral Target” (Advanced Science, 2025).

In the case of `C[C@H]1CC[C@@]2(OC1)O[C@H]1C[C@H]3[C@@H]4CC=C5C[C@@H](O[C@@H]6O[C@@H](C)[C@H](O)[C@@H](O)[C@H]6O)C[C@@H](O[C@@H]6O[C@H](C)[C@H](O)[C@H](O)[C@H]6O)[C@]5(C)[C@H]4CC[C@]3(C)[C@H]1[C@@H]2C` [liriopesides B], binding was characterised by a dissociation constant (Kd) of 132 µM.
